Assay results published in a melting point compilation (Tetko et al.; mined from patent text by program, amines drawn as free bases though some values may be those of a salt).

melting point | SMILES
200 to 202 °C | Cc1ccc(-c2ccc(S(C)(=O)=O)cc2)n1-c1ccc(-c2ccoc2)cc1
131 to 132 °C | CCCCCCNC(=O)C(C)N1CCN(c2ccccn2)CC1 (centres undefined)
150 to 152 °C | Cc1n[nH]c(CC#N)c1Oc1cc(Cl)cc(Cl)c1
236 to 237 °C | CCC1NC(C(=O)O)Cc2c1[nH]c1ccccc21 (centres undefined)
44 to 46 °C | CN(C(=O)Cl)c1ccccc1C(F)(F)F
120 to 122 °C | CC1CC(Nc2ccc(F)cc2)c2cc(F)ccc2N1 (centres undefined)
114 to 115 °C | CCN(C(=O)c1ccc(CCSn2cnc3ccccc32)cc1)C1CCCCC1
136 to 139 °C | CS(=O)(=O)NCc1ccc([N+](=O)[O-])cc1
133 to 134 °C | CCOC(=O)c1c(C)nc2sc3c(c2c1OS(=O)(=O)C(F)(F)F)CCC1(C3)OCCO1
130 to 132 °C | CNCc1cccc(NC(=O)c2c[nH]c3c2C(=O)CCC3)c1
128 to 129 °C | CCCOc1nc(N)nc(-c2ccccc2)c1-c1ccc(=O)n(C(C)C)n1
159 to 162 °C | CCN1C(=O)C2CC(c3ccc(N)cc3)(C2)C1=O
180 to 182 °C | CC(=O)NCc1ccc(CN2CCN(c3ccc(Cl)cc3)CC2)cc1
133 to 134 °C | CC[N+](CC)(CC)C1CC(=O)N1C(C(=O)OCc1ccc([N+](=O)[O-])cc1)=C([O-])CCOC(=O)c1ccccc1 (centres undefined)
118 to 120 °C | NS(=O)(=O)c1ccc(-n2nc(C(F)(F)F)cc2-c2ccc(OS(=O)(=O)C(F)(F)F)c(Cl)c2)cn1
87 to 89 °C | CCCCN(C)c1nsc(N)c1C#N
175 to 177 °C | CC(C)(C)c1ccc2oc(C(O)COc3ccc(C(=O)O)cc3)cc2c1 (centres undefined)
6 to 7 °C | CC/C=C\C#CCCCCCCCCCCO
271 to 277 °C | CN1C(=O)NC(=O)C1=Cc1cc(Br)c(O)c(Br)c1
179 to 180 °C | CCOC(=O)CCc1cc(-c2cc3ccccc3c(=O)o2)ccc1O
70 to 75 °C | CCOC(=O)CCNC(=O)CN1CCOc2ccc(NC(=O)NCc3ccccc3)cc2C1=O
> 260 °C | Cc1nnc2c(NC(N)=O)cc3cc(-c4ccc(CN5CCCCC5)cc4)ccc3n12
109 to 110 °C | Cc1ncn(-c2ccccc2C#N)n1
50 to 54 °C | CSc1ccc(N)c(C#N)c1

melting point | SMILES
113 to 114 °C | CCSc1nc(Nc2ccc(F)cc2F)c(C(=O)OC)cc1F
199 to 200 °C | c1cnc2ccc(Nc3nccc(-c4ccc(N5CCNCC5)nc4)n3)cc2c1
153 °C | CNc1cc(Oc2ccc3c(c2)OCCN3)ncn1
157 to 160 °C | COc1ccc(-c2cn(C)cc(-c3ccccc3)c2=O)cc1C
152 to 153 °C | COc1ccc(S(=O)(=O)N(CCO)c2cccc(F)c2/C=C/c2ccncc2)cc1
51 °C | O=C(C1CCCCC1)N1c2ccc(F)cc2CCC1CN1CCN(c2ccccc2OCC(F)(F)F)CC1 (centres undefined)
157 to 160 °C | COc1ccc(-c2ccc3c(-c4ccccc4)c(OC)ccc3c2)cc1
173 to 175 °C | Nc1ncc2ncn(CCO)c2n1
106 to 108 °C | Nc1ncccc1CCc1ccccc1
94 to 98 °C | Cc1cc(C)n(C)c1C(=O)c1ccc(Cl)cc1
43 to 49 °C | CCCC(C(=O)OCC)N1CC(COc2cccc(Cl)c2)OC1=O (centres undefined)
133 to 134 °C | O=C(CCCCl)CN1C(=O)c2ccccc2C1=O
62 to 72 °C | CC(=O)NC1Cc2ccc(CCN3CCN(c4nsc5ccccc45)CC3)cc2C1(C)C (centres undefined)
44 to 48 °C | CN1CC(OC(c2ccccc2)c2ccccc2)C1
140 to 142 °C | Cc1cc(C)cc(CN(C)C(=O)C(Cc2c[nH]c3ccccc23)NC(=O)c2ccccc2)c1 (centres undefined)
124 to 126 °C | O=C1N(C2CCCCC2)CC(CCl)C1(c1ccccc1)c1ccccc1 (centres undefined)
128 to 135 °C | CC1(C)SC2C(NC(=O)C(NC(=O)CBr)c3ccccc3)C(=O)N2C1c1nnn[nH]1 (centres undefined)
261 to 265 °C | CS(=O)(=O)Nc1ccc(Nc2nc(NC3CCCC3)c3nc[nH]c3n2)cc1
90 to 100 °C | CSc1nnc(C(C)(C)C)c(=O)n1C
109 to 110 °C | CCOC(=O)CC(NC(=O)C1=C(C(=O)Nc2ccc(Cl)cc2F)CCCC1)C(=O)OCC (centres undefined)
62 to 64 °C | CCCCCC(Br)C(Br)CC(Br)C(Br)CCCCCCCBr (centres undefined)
206 to 209 °C | COc1ccc(-c2cc3c(N4CCOCC4)nnc(N4CCOCC4)c3c(C)n2)cc1
220 to 221 °C | CCCCN(CCCC)c1ccc(C=CC2=C(C#N)C(=C(C#N)C#N)OC2(C)C)c(O[Si](c2ccccc2)(c2ccccc2)C(C)(C)C)c1
180 to 181 °C | CCc1ccc2c(=O)c(-c3nnn[nH]3)cn(C)c2c1

melting point | SMILES
114 to 115 °C | CN1CCN(C(=O)c2cc(N)cc(C(F)(F)F)c2)CC1
155 °C | Cc1cc(C)cc(Oc2cc(Br)cc(S(=O)(=O)N3CCN(C(=O)OC(C)(C)C)CC3)c2)c1
140 to 142 °C | OC1(c2cccc(C(F)(F)F)c2)CCN(CCc2ccc3ncccc3c2)CC1
129 °C | CC1CCN(c2nc(-c3ncccn3)cc(Cl)c2-c2c(F)cccc2Cl)CC1
151 to 152 °C | CC(C)Oc1ccc2c(c1)Oc1cccc(F)c1S2(=O)=O
224 to 225 °C | CN1C[C@@H]2C[C@@]1(C(=O)c1ccc(-c3[nH]nc4c3C(=O)c3c(NC(=O)NN5CCOCC5)cccc3-4)s1)CN2
77 to 79 °C | CCCCCc1c(C(C)C)nc(C(C)C)c(C(C)CO)c1-c1ccc(F)cc1 (centres undefined)
205 to 208 °C | Cc1ccccc1CCc1nc2cc(Cl)c(S(N)(=O)=O)cc2[nH]1
120 to 122 °C | CC(C)NC(=O)NC(C)(C)C(=O)NCCO[N+](=O)[O-]
> 300 °C | COc1ccc(-c2[nH]nc3c2C(=O)c2c(NC(=O)NN(C)C)cccc2-3)cc1
80.5 to 82.5 °C | COc1cc(C(C)(C)C)c(OC)cc1I
191 to 194 °C | COCc1nc2cccc(C(=O)OC)c2n1Cc1ccc(-c2ccccc2-c2nnn[nH]2)cc1
225 to 228 °C | O[C@H]1CC[C@H](Nc2nccc(-n3nnc4ccccc43)n2)CC1
165 to 167 °C | Cc1ncn(Nc2ccccc2)c1-c1ccccc1
126 to 127 °C | Cc1cccc(C)c1Sc1nc[nH]n1
204 to 205 °C | Cc1nnc(-c2ccc3occ(-c4ccc(S(C)(=O)=O)c(Cl)c4)c3c2)o1
275 to 276 °C | CCNc1ccc(-c2c(N)nc(N)nc2CC)cc1[N+](=O)[O-]
142 to 143 °C | Cc1cc(C)c(C[C@@H](C(=O)[C@H](Cc2c(C)cc(C)cc2C)N2C(=O)c3ccccc3C2=O)N2C(=O)c3ccccc3C2=O)c(C)c1
219 °C | Cc1ccc(COc2cc(C(O)C#Cc3ccc(C(=O)O)cc3)cc3c2C(C)(C)CCC3(C)C)cc1 (centres undefined)
164 to 165 °C | Nc1cn(-c2cncc(F)c2)nc1Br
89 to 91 °C | COc1ccc(S(=O)(=O)Nc2cccnc2Nc2ccc(O)c(C)c2)cc1
45 to 46 °C | O=C(NCCNCc1ccccc1)c1ccc(Cl)cn1
136 to 137 °C | COC(=O)CCCc1nnc(-c2nccs2)c2cc(OC)ccc12
36 °C | CN(C)C1(C#N)CCCCC1

melting point | SMILES
71 to 74 °C | CCCCCCCCCCCC1=NCCO1
258 to 260 °C | CCc1cnc2n1N=C(c1ccc(N)cc1)c1cc3c(cc1C2)OCO3
243 to 244 °C | O=C(O)c1oc(=O)c2cc(Cl)c(Cl)cc2c1-c1ccccc1
164 to 168 °C | Cc1noc(NS(=O)(=O)c2ccccc2-c2ccc(-c3ncco3)cc2Cn2ccc(-c3ccccc3)n2)c1C
111 to 112 °C | CC(C)(C)OC(=O)Nc1cc(OCc2ccccc2)c2ccccc2c1I
205 to 207 °C | CC(=O)NNc1ccc(NC(=S)Nc2ccccc2)cc1
> 300 °C | C[C@@H](Nc1ncnc2[nH]c(-c3ccc(CO)cc3)cc12)c1ccccc1
204 to 205 °C | COc1ccc(-c2c(Cl)c(CNC(C)(C)C)nc3sc4c(c23)CCN(C(=O)c2ccccc2)C4)cc1OC
138 to 140 °C | CCOC(=O)Cn1c(C(=O)NCc2nnc(C)n2-c2sc(CC)cc2C(=O)c2ccccc2Cl)cc2ccccc21
107 to 110 °C | CSc1c(NCc2ccncc2)cnn(C(C)(C)C)c1=O
107 to 109 °C | Cc1ccc(S(=O)(=O)OCCc2nc(-c3cccc(Br)c3)oc2C)cc1
158 to 160 °C | CCC(=O)Oc1ccc(/C(=C(/CC)c2ccccc2)c2ccc(/C=C/C(=O)O)cc2)cc1
53 to 56 °C | OCCCCCCOc1ccc2ccccc2c1
142 to 144 °C | CC(=O)Oc1ccc(CC(CCC(=O)O)N2C(=O)c3ccccc3C2=O)cc1 (centres undefined)
178 to 180 °C | CN(c1cccc2cc(C3=NCC(C)(CN4CCNCC4)S3)[nH]c12)S(=O)(=O)c1cccs1 (centres undefined)
80 to 81 °C | COc1cc(CCNC(=O)C(F)(F)F)ccc1N
188 to 189 °C | CN1C(=O)CC[C@]2(C)c3ccc(Sc4nc5ccccc5s4)cc3CC[C@@H]12
167 to 168 °C | Cc1cc(C)c(-n2nnc3c(-c4ccc(Cl)cc4Cl)nc(C)nc32)c(C)c1
220 to 221 °C | CC(C)c1cc(-c2c3ccccc3c(Br)c3sc4ccccc4c23)cc(C(C)C)c1OCC(=O)O
48 to 50 °C | CCCCN(CCCC)CCCCC(=O)c1ccc2c(c1)Cc1cc(C(=O)CCCCN(CCCC)CCCC)ccc1-2
218 to 221 °C | CCOCc1nc2c(N)nc3ccc(O)cc3c2n1CCCCN(C(N)=O)c1ccccc1
196 °C | CCn1c(=O)c2c(nc(/C=C/c3cc(OC)c(OC(=O)c4ccccc4)c(OC)c3)n2C)n(CC)c1=O
268 to 270 °C | N#Cc1ccc(/C=C/S(=O)(=O)CS(=O)(=O)/C=C/c2ccc(C#N)cc2F)c(F)c1

SMILES | melting point
CN1C(=O)[C@H](NC(=O)c2cc3cc(Cl)ccc3[nH]2)N=C(c2ccccc2)c2ccccc21 | 160 to 164 °C
CC(=NO)c1cccc(NC(=O)NC2N=C(c3ccccc3F)c3cccc(C)c3N(CC(=O)N3CC4CCC(CC4)C3)C2=O)c1 (centres undefined) | 199 to 208 °C
CCc1c(C=O)c2ccc(C(N)=O)cc2n1Cc1ccccc1Cl | 260 to 261 °C
CC(C)OC(=O)Nc1ccc(Cl)c(-c2ccnc3c(C(=O)c4cccs4)cnn23)c1 | 234 to 236 °C
